According to US7842671B1, “Peptidomimetic inhibitors of STAT activity and uses thereof” (University of South Florida, priority 2003, dated 2010):
Where two headings read alike, the source gives them in different places. Square brackets hold non-standard residues; d marks the D form. Ends that are not written are not given here. Peptide text beside a SMILES is read from it. * marks the point of attachment. pY = N[CH](Cc1ccc(OP(=O)(O)O)cc1)C(=O)O; Nicotinoyl = O=C(c1cccnc1)*; 3Abz = Nc1cccc(C(=O)O)c1; Isobutyryl = CC(C)C(=O)*; 2Abz = Nc1ccccc1C(=O)O

Tests used:
Stat3 [1] = target: T1, Stat3 (Mus musculus, UniProt P42227); assay: EMSA of Stat3 DNA-binding activity in nuclear extracts (hSIE probe); format: biochemical; design: nuclear extracts (prepared from epidermal growth factor (EGF)-stimulated fibroblasts); endogenous in cells; host or cells: NIH3T3 fibroblasts stimulated with EGF; details: for effect on Stat3 DNA-binding activity in vitro (in words): nuclear extracts; for selectivity among Stat3, Stat1 and Stat5 (in words): EMSA IC50 comparison
T1 sequence (P42227 whole entry): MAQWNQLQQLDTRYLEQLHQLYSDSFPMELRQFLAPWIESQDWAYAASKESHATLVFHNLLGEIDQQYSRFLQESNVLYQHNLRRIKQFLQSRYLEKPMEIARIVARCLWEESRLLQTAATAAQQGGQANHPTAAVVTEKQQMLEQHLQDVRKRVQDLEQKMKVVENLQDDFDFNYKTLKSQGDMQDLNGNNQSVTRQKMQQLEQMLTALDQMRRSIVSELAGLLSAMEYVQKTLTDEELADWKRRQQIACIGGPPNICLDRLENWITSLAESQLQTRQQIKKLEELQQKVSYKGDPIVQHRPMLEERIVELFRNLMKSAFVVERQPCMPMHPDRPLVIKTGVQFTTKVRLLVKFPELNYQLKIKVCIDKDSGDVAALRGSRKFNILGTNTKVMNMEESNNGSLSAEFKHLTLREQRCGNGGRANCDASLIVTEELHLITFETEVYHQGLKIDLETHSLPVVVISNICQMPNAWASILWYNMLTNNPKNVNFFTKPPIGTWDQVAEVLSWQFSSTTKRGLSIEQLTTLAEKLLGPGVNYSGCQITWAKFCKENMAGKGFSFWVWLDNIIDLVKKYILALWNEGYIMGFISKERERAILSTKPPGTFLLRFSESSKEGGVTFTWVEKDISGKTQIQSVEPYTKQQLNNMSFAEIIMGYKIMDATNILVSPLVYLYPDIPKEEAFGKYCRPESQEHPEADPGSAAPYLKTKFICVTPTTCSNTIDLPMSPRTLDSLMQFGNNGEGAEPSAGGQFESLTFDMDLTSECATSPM
Description: (§1) Nuclear extract preparation and gel shift assays. Nuclear extracts were prepared from cell lines and used for electrophoretic mobility shift assay (EMSA) as previously described (Garcia, R. et al. (1997); Yu, C. L. et al. (1995); Turkson, J. et al. (1998)). In some cases, cells were pre-treated with peptidomimetics for the indicated times (12-48 h) prior to harvesting for nuclear extract preparation. In other studies, nuclear extracts were pre-incubated with peptidomimetics for 30 min at room temperature prior to incubation with radiolabeled probe. The ^32P-radiolabeled oligonucleotide probes used are hSIE (high affinity sis-inducible element, m67 variant, 5′-[…]-3′) (SEQ ID NO. 3) that binds both Stat1 and Stat3 (Garcia, R. et al. (1997); Wagner B. J. et al. (1990)) and MGFe (mammary gland factor element from the bovine β-casein gene promoter, 5′-[…]-3′) (SEQ ID NO. 4) that binds Stat1 and Stat5 (Gouilleux, F. et al. (1995); Seidel, H. M. et al. (1995)).
(§2) Peptidomimetics of the invention can be prepared by replacing prolyl or alanyl residue at the peptide bond that is N-terminal to the phosphotyrosine (Y*) of a peptide such as PY*L or AY*L with an organic substituent such as an optionally substituted aryl or heteroaryl group. The activities of STATs were measured in nuclear extracts (prepared from epidermal growth factor (EGF)-stimulated fibroblasts) as DNA-bound protein complexes by electrophoretic mobility shift assay (EMSA).
From densitometric analysis of band intensities, the IC50 values (concentration of peptidomimetic at which DNA-binding activity is reduced by 50%), which are reported in Table 3, were determined.

[2] = test system: Stat1:Stat1 and Stat3:Stat3 dimers; assay: Dissociation-reassociation analysis of pooled Sf-9 lysates by EMSA; format: biochemical; details: 30 min pre-treatment, 30-300 μM PY*LKTK or 3-1000 μM ISS 610, hSIE probe
Description: Cytosolic extract preparation and luciferase assays. Cytosolic extract preparation from fibroblasts and luciferase assays were previously described (Turkson, J. et al. (1998); Turkson, J. et al. (1999)). Briefly, after two washes with PBS and equilibration for 5 min with 0.5 ml PBS-0.5 mM EDTA, cells were scraped off the dishes and the cell pellet was obtained by centrifugation (4,500×g, 2 min, 4° C.). Cells were resuspended in 0.4 ml of low-salt HEPES buffer (10 mM HEPES (pH 7.8), 10 mM KCl, 0.1 mM EGTA, 0.1 mM EDTA, 1 mM phenylmethylsulfonyl fluoride, and 1 mM dithiothreitol) for 15 min, lysed by the addition of 20 μl of 10% Nonidet P-40 (NP-40), and centrifuged (10,000×g, 30 s, 4° C.) to obtain the cytosolic supernatant, which was used for luciferase assays (Promega) measured with a luminometer. Cytosolic lysates containing activated Stat3 or Stat1 that were used for dissociation-reassociation analysis were prepared from baculovirus-infected Sf-9 insect cells as previously described (Turkson, J. et al. (2001); Zhang, Y. et al. (2000)). Briefly, cultured dishes of Sf-9 cells were washed twice with ice-cold 1×PBS and then PBS containing 1 mM sodium orthovanadate.

Stat3 [3] = target: T1, Stat3; design: nuclear extracts (prepared from epidermal growth factor (EGF)-stimulated fibroblasts); endogenous in cells; host or cells: NIH3T3 fibroblasts stimulated with EGF; details: cited from earlier work
[4] = target: Stat3:Stat3 homodimers (activated Stat3 in nuclear extracts of EGF-stimulated NIH3T3 fibroblasts) (mouse) (UniProt P42227); assay: cell-based or functional assay
Stat1:Stat1 = target: T2, Stat1:Stat1 (Mus musculus, UniProt P42225); assay: EMSA of Stat1:Stat1 DNA-binding in nuclear extracts; format: biochemical; details: nuclear extracts pre-incubated 30 min, EMSA; mean and SD of at least 3 assays; read-out: IC50 values against STAT Dimers, Stat1:Stat1
T2 construct: nuclear extracts (prepared from epidermal growth factor (EGF)-stimulated fibroblasts); endogenous in cells; host or cells: NIH3T3 fibroblasts stimulated with EGF
T2 sequence (P42225 1-749): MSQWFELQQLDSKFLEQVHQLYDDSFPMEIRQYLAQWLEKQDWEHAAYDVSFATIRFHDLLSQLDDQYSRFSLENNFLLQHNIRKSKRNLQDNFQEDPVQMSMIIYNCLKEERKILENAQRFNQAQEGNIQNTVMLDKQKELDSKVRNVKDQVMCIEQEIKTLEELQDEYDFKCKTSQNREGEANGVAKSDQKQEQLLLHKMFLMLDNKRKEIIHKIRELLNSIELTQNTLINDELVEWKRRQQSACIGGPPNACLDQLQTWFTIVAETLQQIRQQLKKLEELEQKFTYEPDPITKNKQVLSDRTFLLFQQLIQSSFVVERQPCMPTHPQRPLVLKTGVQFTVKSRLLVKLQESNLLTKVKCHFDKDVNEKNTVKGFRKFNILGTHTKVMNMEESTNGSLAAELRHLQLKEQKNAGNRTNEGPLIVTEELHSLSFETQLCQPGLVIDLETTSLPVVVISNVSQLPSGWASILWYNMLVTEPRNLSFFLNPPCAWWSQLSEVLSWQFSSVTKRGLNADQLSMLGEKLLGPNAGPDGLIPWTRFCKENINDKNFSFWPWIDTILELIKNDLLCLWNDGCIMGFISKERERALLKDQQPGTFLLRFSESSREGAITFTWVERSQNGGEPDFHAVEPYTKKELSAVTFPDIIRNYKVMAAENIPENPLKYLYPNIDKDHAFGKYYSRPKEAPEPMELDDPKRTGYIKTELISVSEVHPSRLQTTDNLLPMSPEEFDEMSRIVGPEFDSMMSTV
Description: as §1
as §2, with “(EMSA). STAT-DNA complexes detected include Stat3:Stat3 homodimers (upper band), Stat1:Stat3 heterodimers (intermediate band) and Stat1:Stat1 homodimers (lower band) (FIG. 1A) when a ^32P-labeled hSIE oligonucleotide probe is used, or Stat5:Stat5 (upper band) and Stat1:Stat1 dimers (lower band) (FIG. 1B) when ^32P-labeled MGFe is used as a probe.” for “(EMSA).”

Stat5:Stat5 = assay: EMSA of Stat5:Stat5 DNA-binding in nuclear extracts; format: biochemical, mouse; details: nuclear extracts pre-incubated 30 min, mean and SD of at least 3 assays, read-out: IC50 values against STAT Dimers, Stat5:Stat5
Description: as §1
as §2, with “(EMSA). STAT-DNA complexes detected include Stat3:Stat3 homodimers (upper band), Stat1:Stat3 heterodimers (intermediate band) and Stat1:Stat1 homodimers (lower band) (FIG. 1A) when a ^32P-labeled hSIE oligonucleotide probe is used, or Stat5:Stat5 (upper band) and Stat1:Stat1 dimers (lower band) (FIG. 1B) when ^32P-labeled MGFe is used as a probe.” for “(EMSA).”

Stat1:Stat3 = target: T3, Stat1:Stat3 (Mus musculus, UniProt P42227); assay: EMSA of Stat1:Stat3 heterodimer DNA-binding in nuclear extracts (hSIE probe); format: biochemical; details: nuclear extracts pre-incubated 30 min, mean and SD of at least 3 assays, read-out: IC50 values against STAT Dimers, Stat1:Stat3
T3 construct: nuclear extracts (prepared from epidermal growth factor (EGF)-stimulated fibroblasts); endogenous in cells; host or cells: NIH3T3 fibroblasts stimulated with EGF
T3 sequence (P42227 whole entry): as the sequence (P42227 whole entry) above
Description: as §1, §2

NIH3T3 = assay: Apo-BrdU labeling and flow cytometry for apoptotic cells; format: cell-based, mouse; details: NIH3T3, 1 mM, 48 h, flow cytometry
Description: (§3) Cell proliferation, soft-agar growth and Apo-BrdU labeling studies. Proliferating fibroblasts and human tumor cells were counted by phase-contrast microscopy for viable cells (using tyrpan blue exclusion). Colony formation assays in six-well dishes and quantification of colonies by iodonitrotetrazolium violet have been previously described (Turkson, J. et al. (1999)). Treatment of cells with inhibitors was initiated 1 day after seeding cells by adding 75 μl of medium with or without inhibitor, and repeated every two to three days. Apoptosis was measured by Apo-BrdU labeling and following the supplier's (PharMingen; San Diego, Calif.) instructions.
(§4) Because one of the functions of Stat3 is to protect transformed or tumor cells from apoptosis (Catlett-Falcone, R. et al. (1999b); Epling-Burnette, P. K. et al. (2001); Grandis, J. R. et al. (2000); Bowman, T. et al. (2000b); Bromberg, J. F. et al. (1999)), the ability of peptidomimetics of the invention (and PY*LKTK-MTS for comparison) (SEQ ID NO. 1) to induce apoptosis in Stat3-dependent transformed fibroblasts was evaluated. Viral Src-transformed NIH3T3/v-Src fibroblasts were treated with or without compounds for 48 h. Treated cells were then labeled with Apo-BrdU (PharMingen; San Diego, Calif.) for detection of DNA breaks.

NIH3T3/v-Src = assay: as above; format: cell-based, mouse; details: NIH3T3/v-Src, 1 mM, 48 h, Apo-BrdU, flow cytometry
Description: as §3, §4

[5] = nuclear extracts pre-incubated 30 min, hSIE probe, EMSA, mean and SD of at least 3 assays, read-out: IC50, disruption of Stat3 DNA-binding activity

CC(C)CC(NC(=O)C(Cc1ccc(OP(=O)(O)O)cc1)NC(=O)c1ccccc1N)C(=O)O (stereo not drawn) [ISS 265] (H-[2Abz]-[pY]-Leu-OH; configuration not given here)
IC50 (Stat3 [1]; [5]): > 1000 µM

PY*LKTK (P[pY]LKTK) [reference compound]
effect on STAT dimers in mixed Stat1:Stat1 and Stat3:Stat3 lysates [2]: appearance of an additional intermediate band representing Stat1:Stat3 heterodimers
disruption of Stat3:Stat3 dimer formation and Stat3 DNA-binding activity, as reported earlier (Stat3 [3]): disrupt Stat3:Stat3 dimer formation

CC(C)CC(NC(=O)C(Cc1ccc(OP(=O)(O)O)cc1)NC(=O)c1cccnc1)C(=O)O (stereo not drawn) [ISS 219] (Nicotinoyl-[pY]-Leu-OH; configuration not given here)
IC50 (Stat3 [1]; [5]): 232 µM

CC(C)CC(NC(=O)C(Cc1ccc(OP(=O)(O)O)cc1)NC(=O)c1ccc(-c2ccccc2)cc1)C(=O)O (stereo not drawn) [ISS 355]
IC50 (Stat3 [1]): > 1000 µM

CC(C)CC(NC(=O)C(Cc1ccc(OP(=O)(O)O)cc1)NC(=O)c1ccccc1-c1ccccc1)C(=O)O (stereo not drawn) [ISS 360]
IC50 (Stat3 [1]): 420 µM

CC(C)CC(NC(=O)C(Cc1ccc(OP(=O)(O)O)cc1)NC(=O)c1cc([N+](=O)[O-])ccc1F)C(=O)O (stereo not drawn) [ISS 375]
IC50 (Stat3 [1]): > 1000 µM

Alanylphosphotyrosylleucine (peptide)
IC50, concentration at which Stat3 DNA-binding (EMSA, hSIE probe) is reduced by 50% [4]: 217 µM

Cc1ncccc1C(=O)NC(Cc1ccc(OP(=O)(O)O)cc1)C(=O)NC(CC(C)C)C(=O)O (stereo not drawn) [ISS 221]
IC50 (Stat1:Stat1): 310 µM
IC50 (Stat5:Stat5): 50 µM
IC50 (Stat1:Stat3): 455 µM
IC50 (Stat3 [1]; [5]): 75 µM
effect on Stat3 DNA-binding activity in vitro (in words) (Stat3 [1]; EMSA): potent disrupters of active Stat3

CC(C)CC(NC(=O)C(Cc1ccc(OP(=O)(O)O)cc1)NC(=O)c1cccc2ccccc12)C(=O)O (stereo not drawn) [ISS 352]
IC50 (Stat3 [1]): 410 µM

CC(C)CC(NC(=O)C(Cc1ccc(OP(=O)(O)O)cc1)NC(=O)c1cnc2ccccc2c1)C(=O)O (stereo not drawn) [ISS 363]
IC50 (Stat3 [1]): 643 µM

Cc1ccc(C(=O)NC(Cc2ccc(OP(=O)(O)O)cc2)C(=O)NC(CC(C)C)C(=O)O)cn1 (stereo not drawn) [ISS 223]
IC50 (Stat3 [1]): 225 µM

CC(C)CC(NC(=O)C(Cc1ccc(OP(=O)(O)O)cc1)NC(=O)c1cccc(N)c1)C(=O)O (stereo not drawn) [ISS 248] (H-[3Abz]-[pY]-Leu-OH; configuration not given here)
IC50 (Stat3 [1]): > 1000 µM

CC(C)CC(NC(=O)C(Cc1ccc(OP(=O)(O)O)cc1)NC(=O)C(C)C)C(=O)O (stereo not drawn) [ISS234] (Isobutyryl-[pY]-Leu-OH; configuration not given here)
IC50 (Stat3 [1]): > 1000 µM

PYLKTK-AAVLLPVLLAAP (PYLKTKAAVLLPVLLAAP; membrane translocating sequence; murine) [PYLKTK-MTS]
percent of apoptotic cells (NIH3T3): 1.2%
percent of apoptotic cells (NIH3T3/v-Src): 0.4%

Cc1cnc(C(=O)NC(Cc2ccc(OP(=O)(O)O)cc2)C(=O)NC(CC(C)C)C(=O)O)cn1 (stereo not drawn) [ISS 493]
IC50 (Stat1:Stat1): 273 µM
IC50 (Stat5:Stat5): 300 µM
IC50 (Stat1:Stat3): 230 µM
selectivity among Stat3, Stat1 and Stat5 (in words) (Stat3 [1]): preferential suppression of Stat3 activity over those of Stat1 or Stat5
IC50 (Stat3 [1]; [5]): 38 µM

CC(C)CC(NC(=O)C(Cc1ccc(OP(=O)(O)O)cc1)NC(=O)c1ccc2ccccc2c1)C(=O)O (stereo not drawn) [ISS 353]
IC50 (Stat3 [1]; [5]): 650 µM

COc1cccc(OC)c1C(=O)NC(Cc1ccc(OP(=O)(O)O)cc1)C(=O)NC(CC(C)C)C(=O)O (stereo not drawn) [ISS 637]
IC50 (Stat1:Stat1): 255 µM
IC50 (Stat5:Stat5): 695 µM
IC50 (Stat1:Stat3): 195 µM
selectivity among Stat3, Stat1 and Stat5 (in words) (Stat3 [1]): preferential suppression of Stat3 activity over those of Stat1 or Stat5
increase in potency in inhibiting Stat3 DNA-binding activity compared to tripeptides PY*L or AY*L (Stat3 [1]; in vitro, EMSA): 5 fold
IC50 (Stat3 [1]; [5]): 55 ± 35 µM
effect on Stat3 DNA-binding activity in vitro (in words) (Stat3 [1]; EMSA): potent disrupters of active Stat3

Prolylphosphotyrosylleucine (peptide)
IC50, concentration at which Stat3 DNA-binding (EMSA, hSIE probe) is reduced by 50% [4]: 182 µM

CC(C)CC(NC(=O)C(Cc1ccc(OP(=O)(O)O)cc1)NC(=O)c1ccc(N)nc1)C(=O)O (stereo not drawn) [ISS 249]
IC50 (Stat3 [1]): > 1000 µM

CC(=O)NC(Cc1ccc(OP(=O)(O)O)cc1)C(=O)NC(CC(C)C)C(=O)O (stereo not drawn) [ISS230] (Ac-[pY]-Leu-OH; configuration not given here)
IC50 (Stat3 [1]): > 1000 µM
